# Measurements: PubChem BioAssay (NCI)
# Several values for one entry are separate records, joined by “and”; a condition that tells them apart may be missing. Identical values can stand only once.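 Interpolation was linear, between the two tested concentrations surrounding the appropriate level; five concentrations were tested over 48 hours in 96-well plates. GI50 marks 50% less growth. Definition used: TGI = concentration required for complete inhibition of growth.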
# What was measured:
# Test in all cases: NCI tumour cell line growth inhibition, 48 h
# NCI-H522 lung = test system: NCI-H522 lung
# U251 CNS = test system: U251 CNS
# CCRF-CEM leukemia = test system: CCRF-CEM leukemia
# NCI/ADR-RES ovarian = test system: NCI/ADR-RES ovarian
# OVCAR-4 ovarian = test system: OVCAR-4 ovarian
# HCT-116 colon = test system: HCT-116 colon
# IGROV1 ovarian = test system: IGROV1 ovarian
# SF-295 CNS = test system: SF-295 CNS
# MDA-MB-435 = test system: MDA-MB-435
# MCF7 breast = test system: MCF7 breast
SMILES,TGI (NCI-H522 lung),TGI (U251 CNS),TGI (CCRF-CEM leukemia),TGI (NCI/ADR-RES ovarian),TGI (OVCAR-4 ovarian),TGI (HCT-116 colon),TGI (IGROV1 ovarian),TGI (SF-295 CNS),TGI (MDA-MB-435),TGI (MCF7 breast),GI50 (NCI/ADR-RES ovarian),GI50 (NCI-H522 lung),GI50 (U251 CNS),GI50 (OVCAR-4 ovarian),GI50 (HCT-116 colon),GI50 (IGROV1 ovarian),GI50 (SF-295 CNS),GI50 (MDA-MB-435),GI50 (MCF7 breast)
Nc1c(S(=O)(=O)O)cc(S(=O)(=O)O)c2ccc(N=Nc3ccccc3)c(O)c12,> 100 µM,> 100 µM,> 100 µM,> 100 µM,> 100 µM,> 100 µM,> 100 µM,> 100 µM,> 100 µM,> 100 µM,,,,,,,,,
Cc1cn(CC(=S)NCCc2c[nH]c3ccccc23)c(=O)[nH]c1=O,,> 100 µM,> 100 µM,> 100 µM,> 100 µM,> 100 µM,> 100 µM,,> 100 µM,> 100 µM,,,,,,,,,
CC1CC(C)(O)C2C3(C)CCCC2(COC3=O)C12CCC1(CCOC1=O)O2 (stereo not given),> 250 µM,> 250 µM,> 250 µM,> 250 µM,> 250 µM,> 250 µM,> 250 µM,> 250 µM,,> 250 µM,,,,,,,,,
CC(=O)NC1C(OCc2ccccc2)OC(CO)C(O)C1OCC(=O)NC(C(=O)NC(CCC(=O)NCCCCCC(=O)Nc1ccc2c(c1)CN1C(=O)c3ccccc3C1=N2)C(N)=O)C(C)C (stereo not given),,39.2 µM,> 100 µM,> 100 µM,53 µM,> 100 µM,50.4 µM,60.8 µM,> 100 µM,56.7 µM,,,,,,,,,
Cc1ccc(C(=O)NC2C(=O)NC(C(C)C)C(=O)N3CCCC3C(=O)N(C)CC(=O)N(C)C(C(C)C)C(=O)OC2C)c2c1Oc1c(c(C(=O)NC3C(=O)NC(C(C)C)C(=O)N4CCCC4C(=O)N(C)CC(=O)N(C)C(C(C)C)C(=O)OC3C)c3nc(-c4ccccc4)c(=O)oc3c1C)N2 (stereo not given),0.0342 µM,,0.697 µM,2.59 µM and 2.37 µM,,,13.3 µM,0.12 µM,0.0193 µM,0.0116 µM,0.0856 µM,,,,,,,,
c1ccc(-c2cc3nc4ccccc4nc3cc(-c3ccccc3)[nH][nH]2)cc1,> 100 µM,> 100 µM,> 100 µM,> 100 µM,> 100 µM,> 100 µM,> 100 µM,88.7 µM,> 100 µM,> 100 µM,,,,,,,,,
C=C1N(C)c2ccc(S(=O)(=O)c3ccc4c(c3)C(C)(C)C(=C)N4C)cc2C1(C)C,58.7 µM,> 100 µM,> 100 µM,> 100 µM,> 100 µM,> 100 µM,> 100 µM,> 100 µM,> 100 µM,> 100 µM,,,,,,,,,
COC(=O)[C@]12CC[C@H]3CN(S(=O)(=O)c4ccc(C)cc4)[C@H]([C@H]31)[C@H](c1ccco1)N2S(=O)(=O)c1ccc(C)cc1,> 100 µM,> 100 µM,> 100 µM,> 100 µM,> 100 µM,> 100 µM,> 100 µM,> 100 µM,55.8 µM,> 100 µM,,,,,,,,,
C[C@@]12CC[C@@H](O)C[C@@H]1CC[C@H]1[C@H]2CC[C@@]2(C)[C@H](c3ccc(=O)oc3)CC[C@@]12O,0.021 µM,0.0363 µM,,0.0285 µM,0.0639 µM,0.0122 µM,0.171 µM,0.025 µM,0.0587 µM,0.0932 µM,< 0.01 µM,< 0.01 µM,< 0.01 µM,< 0.0124 µM,< 0.01 µM,< 0.01 µM,< 0.01 µM,< 0.01 µM,< 0.01 µM
C/C=C\C1OC1(C)c1cc(=O)c2c(C)cc3c(c2o1)C(=O)c1c(O)c(C2CC(C)(N(C)C)C(OC(C)=O)C(C)O2)cc(C2CC(N(C)C)C(O)C(C)O2)c1C3=O (stereo not given),0.00964 µM,0.0394 µM,0.379 µM,,0.00888 µM,0.0429 µM,0.183 µM,0.00762 µM,0.0103 µM,0.0401 µM,,,,,,,,,
CCn1c2ccccc2c2ccc(C3C4C(=O)N(c5cccc6ccccc56)C(=O)C4ON3C(C(N)=O)c3ccccc3)cc21 (stereo not given),> 25 µM,> 25 µM,,> 25 µM,> 25 µM,> 25 µM,> 25 µM,> 25 µM,> 25 µM,> 25 µM,,,,,,,,,
CCCCCCC(=O)OC[n+]1ccc(-c2c(COC(=O)NC(C)C)c(COC(=O)NC(C)C)c3n2CCC3)cc1,> 100 µM,> 100 µM,> 88 µM,> 100 µM,> 100 µM,> 100 µM,> 100 µM,> 100 µM,> 100 µM,> 100 µM,,,,,,,,,
C/C(=C\[Si](C)(C)c1ccco1)C(C)(O)[C@H](C)O (stereo not given in full),74.4 µM,> 100 µM,> 100 µM,> 100 µM,12.8 µM,> 100 µM,> 100 µM,> 100 µM,> 100 µM,> 100 µM,,,,,,,,,
CC(C)CC(N)C(=O)NC(CNC(CCC(N)=O)C(=O)NC(CC(C)C)C(=O)NC(CC(C)C)C(=O)O)Cc1ccc2ccccc2c1 (stereo not given),,> 10 µM,> 10 µM,> 10 µM,> 10 µM,> 10 µM,> 10 µM,> 10 µM,> 10 µM,> 10 µM,,,,,,,,,
CCCCCCCCCCCCCCCCCCN(C)CC(COC)OP(=O)([O-])OCC[N+](C)(C)C (stereo not given),4.22 µM,2.44 µM,5.16 µM,33.3 µM,9.75 µM,11.8 µM,1.52 µM,4.71 µM,17.4 µM,14.8 µM,,,,,,,,,
C=C(C)[C@@H]1CC[C@]2(C(=O)O)CC[C@]3(C)[C@H](CC[C@@H]4[C@@]5(C)C/C(=C/c6ccco6)C(=O)C(C)(C)[C@@H]5CC[C@]43C)[C@@H]12,9.85 µM,,,,> 100 µM,,,> 100 µM,> 100 µM,10.7 µM,,2.81 µM,,5.9 µM,,,3.24 µM,3.55 µM,2.62 µM
O=C(O)C1=C(CO)Oc2cc3c(cc2C1c1ccc2c(c1)OCO2)OCO3 (stereo not given),,> 100 µM,> 100 µM,,> 100 µM,> 100 µM,> 100 µM,> 100 µM,,,,,,,,,,,
